# How the values were obtained:
# [1] = tested on: NADH kinase (the present enzyme); test: Inhibition, activation and stabilization of the present enzyme; assay type: biochemical, Pichia membranaefaciens
# NADH kinase A = conditions: Table 3, NADH kinase A; cited from earlier work
# [2] = tested on: NADH kinase (the present enzyme); test: Substrate specificity of the present enzyme (NADH vs NAD+); assay type: biochemical, Pichia membranaefaciens; conditions: for Specificity (relative activity, NADH = 100): Table 3, present enzyme; for Relative activity (%): substrate NADH or NAD+, ATP, pH 8.5, 30° C., 20 minutes, percentage based on NADH
# Description: The substrate specificity of the present enzyme was examined under the following reaction conditions. […]
# To 0.9 ml of each of the above substrate solutions containing NADH or NAD^+ was added 0.1 ml of 23 U/ml of the present enzyme, and the reaction was carried out at 30° C. for 20 minutes. Then, the reaction was terminated by heat treatment at 100° C. for 2 minutes, and the denatured protein was removed, after which the amount of NADPH or NADP^+ produced by the reaction of the corresponding substrate was measured as follows. As a control solution, there was used a mixture of each substrate solution and the present enzyme in which the reaction had been terminated immediately after mixing them.
# With 1 ml of each of the reaction solutions obtained in the above was mixed 1 ml of a color-producing solution consisting of 10 mM G-6-P, 50 mM HEPPS buffer (pH 8.0), 10 mM magnesium chloride, 0.1% bovine serum albumin, 2.5 IU/ml G-6-P dehydrogenase (NADP^+ -dependent), 5 IU/ml diaphorase and 250 μM 2,6-dichlorophenolindophenol. The resulting mixture was immediately introduced into a constant-temperature cuvette of STASAR III spectrophotometer of Gilford and subjected to reaction at 30° C. Simultaneously with the reaction, the change of absorbance at 600 nm was measured with the lapse of time, and the difference (ΔOD600 nm /min) between absorbance values 1 minute and 2 minutes after the initiation of the coloration reaction was taken as a measured value. As to relative activity (%), a measured value (ΔOD600 nm /min) obtained by using NAD^+ as a substrate was shown as a percentage based on a measured value (ΔOD600 nm /min) obtained by using NADH as a substrate.
# NADH kinase B = conditions: Table 3, NADH kinase B; cited from earlier work
compound,measurement,setting,value
[Cd+2] [Cd^2+],Inhibition of the present enzyme,[1],strongly inhibited
N.N.O=S(=O)(O)O [ammonium sulfate],Stabilization of the present enzyme,[1],stabilized
OC[C@H]1O[C@@](CO)(O[C@H]2O[C@H](CO)[C@@H](O)[C@H](O)[C@H]2O)[C@@H](O)[C@@H]1O [saccharose],Stabilization of the present enzyme,[1],stabilized
[Pb+2] [Pb^2+],Inhibition of the present enzyme,[1],strongly inhibited
[Mn+2] [Mn^2+],Stabilization of the present enzyme,[1],stabilized
NC(=O)C1=CN([C@@H]2O[C@H](COP(=O)(O)OP(=O)(O)OC[C@H]3O[C@@H](n4cnc5c(N)ncnc54)[C@H](O)[C@@H]3O)[C@@H](O)[C@H]2O)C=CC1 [NADH],"Specificity (relative activity, NADH = 100)",NADH kinase A,100
same,Action of the present enzyme on the substrate,[2],very specific
same,"Specificity (relative activity, NADH = 100)",[2],100
same,Relative activity (%),[2],100%
same,"Specificity (relative activity, NADH = 100)",NADH kinase B,100
[Hg+2] [Hg^2+],Inhibition of the present enzyme,[1],strongly inhibited
NC(=O)c1ccc[n+]([C@@H]2O[C@H](COP(=O)([O-])OP(=O)(O)OC[C@H]3O[C@@H](n4cnc5c(N)ncnc54)[C@H](O)[C@@H]3O)[C@@H](O)[C@H]2O)c1 [NAD^+],"Specificity (relative activity, NADH = 100)",NADH kinase A,1.7
same,Action of the present enzyme on the substrate,[2],hardly acts
same,"Specificity (relative activity, NADH = 100)",[2],0.9
same,Relative activity (%),[2],0.9%
same,"Specificity (relative activity, NADH = 100)",NADH kinase B,1.6
"O=C(O)c1cc[c]([Hg][Cl])cc1 [p-CMB, p-chloromercuribenzoic acid, reference compound]",Inhibition of the present enzyme,[1],strongly inhibited
"CCCCCCCCCCCCOS(=O)(=O)[O-].[Na+] [SDS, sodium lauryl sulfate, reference compound]",Inhibition of the present enzyme,[1],strongly inhibited
[Mg+2] [Mg^2+],Stabilization of the present enzyme,[1],stabilized
[Zn+2] [Zn^2+],Inhibition of the present enzyme,[1],strongly inhibited
CC(=O)O [sodium acetate],Activation of the present enzyme,[1],activated
[Cu+2] [Cu^2+],Inhibition of the present enzyme,[1],strongly inhibited

# — patent publication US5227299A, “NADH kinase and a process for producing the same” (Noda Institute for Scientific Research, priority 1991, dated 1993)
